{"source": "patent US20040122068A1", "about": "“Pramipexole for the treatment of HIV dementia” (Boehringer Ingelheim Pharma GmbH & Co. KG, priority 2002, published 2004)", "key": {"[1]": {"tested_on": "isolated mitochondria", "test": "In vitro mitochondria test: H2O2 formation of isolated mitochondria (amplexRed/horseradish peroxidase kinetic test)", "assay_type": "biochemical", "settings": "for Quantity of H2O2 formed: 5 mM succinate alone = 100.0", "description": "A. The Reduced H2O2 Formation of Isolated Mitochondria as In Vitro Parameters for Endogenous Radical Stress:\nMitochondria reduce 95% of the oxygen to water.\nOverproduction and/or reduced detoxification of superoxide anion and hydrogen peroxide leads to the development of oxidative stress. This is crucially implicated in neuronal cell death in all kinds of neurodegenerative diseases.\nIn the presence of the energy substrate succinate, isolated mitochondria produce H2O2, which results from the dismutation of superoxide anion. In the presence of amplexRed™ and horseradish peroxidase, the fluorogenic chromophor resorufin is formed, which is measured and quantified in a kinetic test. The quantity of H2O2 formed by the mitochondria can be increased by the addition of the quinone analogue duroquinone."}, "[2]": {"tested_on": "aconitase", "settings": "mice, oral, 4 days, 2×1 mg/kg/d; brain mitochondria; control (0.9% saline) 100±8%; n=4", "protocol": "Mice (C57BL6) were treated with pramipexole by oral route for 4 days in a dose of 2×1 mg/kg KG/d. The animals were then anaesthetised, killed, their brains were removed and the mitochondria (location of the enzyme and site of the radical formation) were isolated. Then the activity was determined by means of a coupled optical test."}}}
{"smiles": "CCCNC1CCc2nc(N)sc2C1", "note": "(stereo not shown) [pramipexole, 2-amino-4,5,6,7-tetrahydro-6-n-propylamino-benzothiazole]", "values": [{"measurement": "Quantity of H2O2 formed", "setting": "[1]; 5 mM succinate + 3 μM duroquinone + 100 μM pramipexole", "value": "58.3 ± 24.6", "unit": "%"}, {"measurement": "duroquinone-induced formation of H2O2 reduced to", "setting": "[1]; summary of Table 1", "value": "50-60%"}, {"measurement": "aconitase activity", "setting": "[2]", "value": "153±16", "unit": "%"}]}
{"smiles": "CC1=C(C)C(=O)C(C)=C(C)C1=O", "note": "[duroquinone]", "values": [{"measurement": "Quantity of H2O2 formed", "setting": "[1]; 5 mM succinate + 3 μM duroquinone", "value": "152.2 ± 1.4", "unit": "%"}]}
